Test results as given in the NIST ThermoML archive (doi:10.1016/j.jct.2017.07.004).
± gives the expanded uncertainty stated by the source.

How the values were obtained:
[1] = xn = mol fraction of the nth substance listed; conditions: 100 kPa, Liquid, x2 = 0; for viscosity: Concentric cylinders viscometry; for mass density: Vibrating tube method
[2] = 100 kPa, Liquid; for viscosity: Concentric cylinders viscometry; for mass density: Vibrating tube method

CCC(C)O (configuration not stated) [butan-2-ol] + CCC=O
[1]
Conditions	mass density [kg/m3]	viscosity [mPa·s]
293.15 K	806.7 ± 1	3.67 ± 0.29
298.15 K	802.7 ± 1	3.04 ± 0.24
303.15 K	798.4 ± 1	2.54 ± 0.2
308.15 K	794.1 ± 1	2.13 ± 0.17
313.15 K	789.8 ± 1	1.8 ± 0.14
318.15 K	785.2 ± 1	1.54 ± 0.12
323.15 K	780.6 ± 1	1.33 ± 0.11

CCCC(C)O (configuration not stated) [pentan-2-ol]
[2]
Conditions	viscosity [mPa·s]
298.15 K	3.32 ± 0.27
303.15 K	2.81 ± 0.23
308.15 K	2.37 ± 0.19
313.15 K	1.99 ± 0.16
318.15 K	1.66 ± 0.13
323.15 K	1.39 ± 0.11

CCCC(C)O (configuration not stated) [pentan-2-ol] + CCC=O
[1]
Conditions	mass density [kg/m3]	viscosity [mPa·s]
293.15 K	809.3 ± 1	3.97 ± 0.32
298.15 K	805.3 ± 1	3.32 ± 0.27
303.15 K	801.2 ± 1	2.81 ± 0.23
308.15 K	797 ± 1	2.37 ± 0.19
313.15 K	792.7 ± 1	1.99 ± 0.16
318.15 K	788.4 ± 1	1.66 ± 0.13
323.15 K	784 ± 1	1.39 ± 0.11

CC(C)O [propan-2-ol] + CCC=O
[1]
Conditions	mass density [kg/m3]	viscosity [mPa·s]
293.15 K	785.4 ± 1	2.42 ± 0.19
298.15 K	781.1 ± 1	2.08 ± 0.17
303.15 K	776.8 ± 1	1.8 ± 0.14
308.15 K	772.4 ± 1	1.56 ± 0.13
313.15 K	768 ± 1	1.36 ± 0.11
318.15 K	763.4 ± 1	1.19 ± 0.1
323.15 K	758.8 ± 1	1.05 ± 0.08

CCC=O [propanal]
[2]
Conditions	mass density [kg/m3]	viscosity [mPa·s]
293.15 K	802.4 ± 1	0.34 ± 0.03
298.15 K	796.2 ± 1	0.33 ± 0.03
303.15 K	790.3 ± 1	0.31 ± 0.03
308.15 K	784.5 ± 1	0.3 ± 0.03
313.15 K	779 ± 1	0.28 ± 0.02
318.15 K	773.5 ± 1	0.27 ± 0.02
323.15 K	768.2 ± 1	0.25 ± 0.02
